Measured values taken from patent publication EP4653444A1, “FUSED TRICYCLIC COMPOUND AS KINASE INHIBITOR” (Hangzhou Innogate Pharma Co., Ltd., priority 2023, dated 2024).
Like-named read-outs stand apart in the source and are kept apart here.

What was measured:
[1] = Pharmacokinetic study in rats; details: rat, plasma, po, 3 mg/kg
Experimental: Pharmacokinetic parameters were calculated by statistical moment method using WinNonLin 8.0 software, mainly including Tmax, T1/2, Cmax and AUC0-24h.
Animals: Three male SD rats weighing 200-220 g were used. After purchase, they were housed in the laboratory animal center for 2 days before experiment. […] Blood samples were collected at scheduled time points after oral gavage.
Vehicle: 0.4% ethanol + 0.4% Tween 80 + 99.2% (0.5% methylcellulose M450). Preparation of oral gavage solution: The compound was accurately weighed and dissolved in vehicle by ultrasonication for 5 min at room temperature to prepare 0.3 mg/mL drug solution.
Single compound administration was also used to study pharmacokinetics in rats.
Blood sample collection: After oral gavage, blood samples were collected from orbital sinus at 0.25, 0.5, 1, 2, 4, 8, 10 and 24 h. 50 µL plasma was mixed with 200 µL acetonitrile (containing 2 ng/mL verapamil as internal standard). The mixture was vortexed for 3 min, then centrifuged at 20000 rcf for 10 min at 4 °C. The supernatant was analyzed by LC-MS/MS.
Standard curves were established by accurately weighing and preparing compounds at different concentrations for mass spectrometric quantification. Compound concentrations in plasma samples were determined based on standard curves to obtain concentration-time profiles. All measurement data were collected and processed by relevant software. Pharmacokinetic parameters (including Tmax, T1/2, Cmax and AUC0-24h) were calculated by statistical moment method.

AXL = target: T1, AXL (Homo sapiens, UniProt P30530); experiment: AXL kinase activity inhibition assay (Mobility shift assay); type: biochemical
T1 sequence (P30530 26-894): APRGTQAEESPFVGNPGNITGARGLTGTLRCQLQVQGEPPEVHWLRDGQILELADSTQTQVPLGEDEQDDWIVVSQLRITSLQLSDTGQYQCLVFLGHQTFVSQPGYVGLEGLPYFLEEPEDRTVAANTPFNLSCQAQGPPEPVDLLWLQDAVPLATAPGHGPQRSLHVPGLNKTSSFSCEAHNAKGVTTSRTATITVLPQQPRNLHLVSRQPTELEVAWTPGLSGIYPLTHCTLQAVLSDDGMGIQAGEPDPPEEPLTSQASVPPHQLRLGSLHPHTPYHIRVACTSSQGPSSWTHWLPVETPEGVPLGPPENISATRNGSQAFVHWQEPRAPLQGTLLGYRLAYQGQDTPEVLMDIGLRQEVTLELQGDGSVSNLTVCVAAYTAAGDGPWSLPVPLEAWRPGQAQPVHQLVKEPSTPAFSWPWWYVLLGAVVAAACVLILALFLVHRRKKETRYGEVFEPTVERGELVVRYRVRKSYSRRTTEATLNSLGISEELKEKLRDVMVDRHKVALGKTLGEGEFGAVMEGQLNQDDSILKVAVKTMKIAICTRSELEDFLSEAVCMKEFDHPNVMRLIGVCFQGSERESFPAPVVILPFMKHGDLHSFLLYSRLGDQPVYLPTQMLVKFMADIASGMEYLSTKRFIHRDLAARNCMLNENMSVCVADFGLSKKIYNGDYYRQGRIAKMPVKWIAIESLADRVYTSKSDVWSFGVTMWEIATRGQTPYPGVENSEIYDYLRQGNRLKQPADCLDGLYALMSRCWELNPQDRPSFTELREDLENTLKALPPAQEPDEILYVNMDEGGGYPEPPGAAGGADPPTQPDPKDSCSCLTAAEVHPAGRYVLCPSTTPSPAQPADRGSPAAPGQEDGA
Experimental: Testing compound inhibitory activity against FLT3 and AXL kinases using Mobility shift assay. Compounds were dissolved in 100% DMSO to prepare 10 mM stock solutions. Prepare 1× Kinase Buffer. Test compounds were serially diluted in 5-fold gradients, and 250 nL of 100× final concentration compounds were transferred to destination plate 3573 using an Echo 550 liquid handler. A 2.5× final concentration kinase solution was prepared in 1× Kinase Buffer. Then, 10 µL of the 2.5× kinase solution was added to both compound wells and positive control wells, while 10 µL of 1× Kinase Buffer was added to negative control wells. The plate was centrifuged at 1000 rpm for 30 seconds, mixed by orbital shaking, and incubated at room temperature for 10 minutes. A 5/3× final concentration mixture of ATP and Kinase Substrate 25 was prepared in 1× Kinase Buffer. The reaction was initiated by adding 15 µL of the 5/3× ATP/substrate mixture. […] Conversion rates were measured using a Caliper EZ Reader. %Inhibition = (Conversion%_max - Conversion%_sample)/(Conversion%_max - Conversion%_min) × 100. Where: Conversion%_sample: Conversion rate reading of test samples; Conversion%_min: Mean value of negative control wells (representing conversion rate without enzyme activity); Conversion%_max: Mean value of positive control wells (representing conversion rate without compound inhibition). […]

Row | SMILES | AUC(0-t) at 24 h [1] | Cmax [1] | Tmax [1] | half-life [1] | IC50 (AXL; Table 3, read-out: AXL (IC50)) | IC50 (AXL)
1 | COc1cc2c(cc1Nc1ncc(Cl)c(Nc3ccccc3S(=O)(=O)C(C)C)n1)OC[C@@H]1CN(C3CCOCC3)CCN21 [Compound C1S] | 136 ng·h/mL | 61.8 ng/mL | 0.83 h | 1.78 h | < 30 nM | 
2 | COc1cc2c(cc1Nc1ncc(Cl)c(Nc3ccccc3S(=O)(=O)C(C)C)n1)OC[C@@H]1CN(C3CCN(C)CC3)CCN21 [Compound C2S] | 1970 ng·h/mL | 135 ng/mL | 10 h | 9.2 h |  | < 30 nM
3 | CNC(=O)c1ccccc1Nc1cc(Nc2cc3c(cc2OC)N2CCN(C4CCN(C)CC4)C[C@H]2CO3)ncc1C(F)(F)F [Compound D2S] | 1470 ng·h/mL | 134 ng/mL | 3.33 h | 5.97 h |  | 
4 | CNC(=O)c1ccccc1Nc1cc(Nc2cc3c(cc2OC)N2CCN(C4CN(C)C4)C[C@H]2CO3)ncc1C(F)(F)F [Compound D4S] | 1660 ng·h/mL | 241 ng/mL | 5.33 h | 3.03 h |  | 
